According to publication PMC4767605 (Cancer chemotherapy and pharmacology, 2016):

How the values were obtained:
[1] = tested on: human NSCLC cell line Calu-6; conditions: ASP9853 alone, 100 mg/kg oral, twice daily
[2] = Phase I study: plasma pharmacokinetics of ASP9853 and docetaxel; assay type: in vivo, human; conditions: for Median ASP9853 Cmax / Median AUC24 for ASP9853: Cycle 1/Day 1
[3] = tested on: ovarian cancer (MCUAS); assay: Ovarian cancer xenograft in mice, combination with paclitaxel; assay type: in vivo; conditions: ASP9853 in combination with paclitaxel, data not shown
[4] = tested on: breast cancer (MDA-MB-231); assay: Breast cancer xenograft in mice, combination with paclitaxel; assay type: in vivo; conditions: ASP9853 in combination with paclitaxel; MDA-MB-231 xenograft; data not shown
[5] = tested on: advanced solid tumors; conditions: ASP9853 + docetaxel
[6] = tested on: prostate cancer (PC-3); assay: Prostate cancer xenograft in mice, combination with paclitaxel; assay type: in vivo; conditions: ASP9853 in combination with paclitaxel; PC-3 xenograft; data not shown
[7] = Cohort 1: ASP9853 25 mg + docetaxel 60 mg/m^2
[8] = Cohort 2: ASP9853 25 mg + docetaxel 75 mg/m^2
[9] = Cohort 3: ASP9853 37.5 mg + docetaxel 60 mg/m^2
[10] = Cohort 4: ASP9853 50 mg + docetaxel 60 mg/m^2

With `O.O.O=C(/C=C/c1ccc(Cl)cc1)N[C@@H](Cc1ccccn1)C(=O)NCC(=O)N1CCC(Oc2cc(C(F)(F)F)ncn2)CC1` [ASP9853, (2E)-3-(4-chlorophenyl)-N-[(1S)-2-oxo-2-{[2-oxo-2-(4-{[6-(trifluoromethyl)-4-pyrimidinyl]oxy}-1-piperidinyl)ethyl]amino}-1-(2-pyridinylmethyl)ethyl]acrylamide dehydrate] the “Antitumor activity in the Calu-6 NSCLC xenograft model” value [1] was “no antitumor activity”, the “ASP9853 PK profiles in patients with versus without neutropenic DLTs” value ([2]; Cycle 1, Day 1, high interpatient variability) was “no clear difference” and the “Median ASP9853 Cmax” value [2, 7] was 747 ng/mL. For the same compound, the “Median AUC24 for ASP9853” value [2, 7] was 3769 ng·h/mL, the “Median ASP9853 Cmax” value [2, 8] was 1019 ng/mL and the “Median AUC24 for ASP9853” value [2, 8] was 8839 ng·h/mL. For the same compound, the “Median ASP9853 Cmax” value [2, 9] was 2450 ng/mL, the “Median AUC24 for ASP9853” value [2, 9] was 7075 ng·h/mL and the “Median ASP9853 Cmax” value [2, 10] was 1490 ng/mL. For the same compound, the “Median AUC24 for ASP9853” value [2, 10] was 6922 ng·h/mL, the “ASP9853 cleared from plasma within 24 hours after administration” value ([2]; in vivo) was “more than 95%” and the “Tmax of ASP9853” value ([2]; oral, patients with advanced solid tumors) was 30 to 252 min. For the same compound, the “ASP9853 plasma exposure (AUC24) when administered in combination with docetaxel” value ([2]; sample size too small for statistical significance, data not shown) was “appeared lower”, the Tumor growth inhibition [3] was “greater tumor growth inhibition” and the Tumor growth inhibition [4] was “greater tumor growth inhibition”. For the same compound, the “Duration of stable disease, mean (SD)” value [5] was 49.4 (47.2) days, the “Duration of stable disease, median [range]” value [5] was 78 [1–133] days and the “Patients with best overall response of stable disease” value ([5]; Eight patients) was 38.1%. The Objective radiographic responses ([5]; eighteen patients evaluable) was “no objective radiographic responses were observed” and the Tumor growth inhibition [6] was “greater tumor growth inhibition”.
